Legend:
SK-OV-3 = experiment: Inhibition of cells growth by colorimetric assay (SRB), SK-OV-3; type: cell-based; settings: SRB, 48 hours exposure
Experimental: (§1) 2°.—Inhibition of Cells Growth by Colorimetric Assay.
(§2) A colorimetric type of assay, using sulforhodamine B (SRB) reaction has been adapted for a quantitative measurement of cell growth and viability [following the technique described by Philip Skehan, et al. (1990), New colorimetric cytotoxicity assay for anticancer drug screening, J. Natl. Cancer Inst., 82:1107-1112]
(§3) This form of the assay employs 96 well cell culture microplates of 9 mm diameter (Faircloth, 1988; Mosmann, 1983). Most of the cell lines are obtained from American Type Culture Collection (ATCC) derived from different human cancer types.
(§4) Cells are maintained in RPMI 1640 10% FBS, supplemented with 0.1 g/l penicillin and 0.1 g/l streptomycin sulfate and then incubated at 37° C., 5% CO2 and 98% humidity. For the experiments, cells were harvested from subconfluent cultures using trypsin and resuspended in fresh medium before plating.
(§5) Cells are seeded in 96 well microtiter plates, at 5×10^3 cells per well in aliquots of 195 μl medium, and they are allowed to attach to the plate surface by growing in drug free medium for 18 hours. Afterward, samples are added in aliquots of 5 μl in a ranging from 10 to 10^−8 μg/ml, dissolved in DMSO/EtOH/PBS (0.5:0.5:99). After 48 hours exposure, the antitumor effect are measured by the SRB methodology: cells are fixed by adding 50 μl of cold 50% (wt/vol) trichloroacetic acid (TCA) and incubating for 60 minutes at 4° C. Plates are washed with deionized water and dried. One hundred μl of SRB solution (0.4% wt/vol in 1% acetic acid) is added to each microtiter well and incubated for 10 minutes at room temperature. Unbound SRB is removed by washing with 1% acetic acid. Plates are air dried and bound stain is solubilized with Tris buffer. Optical densities are read on a automated spectrophotometric plate reader at a single wavelength of 490 nm.
(§6) The values for mean+/−SD of data from triplicate wells are calculated. Some parameters for cellular responses can be calculated: GI=growth inhibition, TGI=total growth inhibition (cytostatic effect) and LC=cell killing (cytotoxic effect).
(§7) Obtained results may predict the usefulness of a certain drug as a potential cancer treatment. For this technique, compounds which show GI50 values smaller than 10 μg/ml are selected to continue with further studies. GI50's data allow to predict that not only could a drug be cystostatic, but also it could have a potential in terms of tumor reduction.

PANC-1 = experiment: Inhibition of cells growth by colorimetric assay (SRB), PANC-1; type: cell-based; settings: SRB, 48 hours exposure
Experimental: as §1, §2, §3, §4, §5, §6, §7

IGROV-1 = experiment: Inhibition of cells growth by colorimetric assay (SRB), IGROV-1; type: cell-based; settings: SRB, 48 hours exposure
Experimental: as §1, §2, §3, §4, §5, §6, §7

LoVo-Dox = experiment: Inhibition of cells growth by colorimetric assay (SRB), LoVo-Dox; type: cell-based; settings: SRB, 48 hours exposure
Experimental: as §1, §2, §3, §4, §5, §6, §7

A-549 [1] = experiment: Inhibition of cells growth by colorimetric assay (SRB), A-549; type: cell-based; settings: SRB, 48 hours exposure
Summary of the method: (§8)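 Using sulforhodamine B, cell growth and viability are quantified after a 48 h drug exposure of cells maintained in RPMI 1640/10% FBS at 37 °C, 5% CO2. Concentrations span 10 to 10^−8 μg/ml; optical density is read at 490 nm.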

LoVo = experiment: Inhibition of cells growth by colorimetric assay (SRB), LoVo; type: cell-based; settings: SRB, 48 hours exposure
Experimental: as §1, §2, §3, §4, §5, §6, §7

K-562 = experiment: Inhibition of cells growth by colorimetric assay (SRB), K-562; type: cell-based; settings: SRB, 48 hours exposure
Experimental: as §1, §2, §3, §4, §5, §6, §7

IGROV-ET = experiment: Inhibition of cells growth by colorimetric assay (SRB), IGROV-ET; type: cell-based; settings: SRB, 48 hours exposure
Experimental: as §1, §2, §3, §4, §5, §6, §7

SK-MEL-28 = experiment: Inhibition of cells growth by colorimetric assay (SRB), SK-MEL-28; type: cell-based; settings: SRB, 48 hours exposure
Experimental: as §1, §2, §3, §4, §5, §6, §7

DU-145 [2] = experiment: Inhibition of cells growth by colorimetric assay (SRB), DU-145; type: cell-based; settings: SRB, 48 hours exposure
Experimental: as §1, §2, §3, §4, §5, §6, §7

HT-29 [3] = experiment: Inhibition of cells growth by colorimetric assay (SRB), HT-29; type: cell-based; settings: SRB, 48 hours exposure
Summary of the method: as §8

LNCaP = experiment: Inhibition of cells growth by colorimetric assay (SRB), LNCaP; type: cell-based; settings: SRB, 48 hours exposure
Experimental: as §1, §2, §3, §4, §5, §6, §7

P-388 = experiment: Inhibition of cell growth by counting cells, P-388; type: cell-based, mouse; settings: Mus musculus, P388, 72 h; three days of incubation; read-out: IC50 (molar) P-388
Summary of the method: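 Mouse P-388 lymphoid neoplasm suspension cells seeded at 1×10^4 cells/well in EMEM 5% FCS containing graded sample concentrations, in duplicate alongside drug-free growth controls. Cells counted by Coulter counter; % growth vs untreated gives dose-response curves, IC50 = concentration producing 50% growth inhibition.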

DU-145 [4] = experiment: Inhibition of cell growth by counting cells, DU-145; type: cell-based, human; settings: Homo sapiens, DU-145, 72 h; three days of incubation; read-out: IC50 (molar) DU-145
Summary of the method: (§9)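 Cells were seeded at 1×10^4 per well in EMEM with 5% FCS containing test sample and incubated 3 days at 37 °C, 5% CO2, in duplicate. Cells were then trypsinized and Coulter-counted, and growth was expressed relative to drug-free controls. IC50 (50% growth inhibition) was taken from dose-response curves.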

MEL-28 = experiment: Inhibition of cell growth by counting cells, MEL-28; type: cell-based, human; settings: Homo sapiens, SK-MEL-28, 72 h; three days of incubation; read-out: IC50 (molar) MEL-28
Summary of the method: as §9

A-549 [5] = experiment: Inhibition of cell growth by counting cells, A-549; type: cell-based, human; settings: Homo sapiens, A549, 72 h; three days of incubation; read-out: IC50 (molar) A-549
Summary of the method: as §9

HT-29 [6] = experiment: Inhibition of cell growth by counting cells, HT-29; type: cell-based, human; settings: Homo sapiens, HT-29, 72 h; three days of incubation; read-out: IC50 (molar) HT-29
Summary of the method: as §9

COc1cc2c(cc1O)CCN[C@]21CS[C@@H]2c3c(OC(C)=O)c(C)c4c(c3[C@H](COC1=O)N1C2[C@H]2c3c(cc(C)c(OC)c3OC(C)C)C[C@@H]([C@@H]1O)N2C)OCO4 (some centres unmarked) [Compound 102]
GI50 (SK-OV-3; Homo sapiens, SK-OV-3, 48 h, SK-OV3, read-out: SK-OV3 GI50): 0.0413 µM | LC50 (SK-OV-3; Homo sapiens, SK-OV-3, 48 h, read-out: SK-OV3 LC50, SK-OV3): 0.124 µM | SK-OV3 TGI (SK-OV-3; SK-OV3): 1.10E-07 | GI50 (PANC-1; Homo sapiens, PANC-1, 48 h, PANC-1, read-out: PANC-1 GI50): 0.0554 µM | LC50 (concentration for 50% net cell kill) (PANC-1; Homo sapiens, PANC-1, 48 h, read-out: PANC-1 LC50, PANC-1): 12.4 µM | PANC-1 TGI (PANC-1; PANC-1): 1.39E-07 | GI50 (IGROV-1; Homo sapiens, IGROV-1, 48 h, IGROV, read-out: IGROV GI50): 0.0353 µM | CC50 (IGROV-1; Homo sapiens, IGROV-1, 48 h, read-out: IGROV LC50, IGROV): 0.134 µM | IGROV TGI (IGROV-1; IGROV): 7.63E-08 | GI50 (LoVo-Dox; Homo sapiens, 48 h, LOVO-DOX, read-out: LOVO-DOX GI50): 0.417 µM | CC50 (LoVo-Dox; Homo sapiens, 48 h, read-out: LOVO-DOX LC50, LOVO-DOX): 12.4 µM | LOVO-DOX TGI (LoVo-Dox; LOVO-DOX): 1.02E-06 | A-549 TGI (A-549 [1]; A-549): 4.24E-07 | GI50 (A-549 [1]; Homo sapiens, A549, 48 h, A-549, read-out: A-549 GI50): 0.152 µM | LC50 (concentration for 50% cell killing) (A-549 [1]; Homo sapiens, A549, 48 h, read-out: A-549 LC50, A-549): 1.19 µM | GI50 (LoVo; Homo sapiens, LoVo, 48 h, LOVO, read-out: LOVO GI50): 0.0698 µM | LC50 (concentration for 50% cell killing) (LoVo; Homo sapiens, LoVo, 48 h, read-out: LOVO LC50, LOVO): 12.4 µM | LOVO TGI (LoVo; LOVO): 4.58E-07 | GI50 (K-562; Homo sapiens, K562, 48 h, K-562, read-out: K-562 GI50): 0.0102 µM | LC50 (50% cell killing) (K-562; Homo sapiens, K562, 48 h, read-out: K-562 LC50, K-562): 0.126 µM | K-562 TGI (K-562; K-562): 4.35E-08 | GI50 (IGROV-ET; Homo sapiens, 48 h, IGROV-ET, read-out: IGROV-ET GI50): 0.101 µM | CC50 (IGROV-ET; Homo sapiens, 48 h, read-out: IGROV-ET LC50, IGROV-ET): 7.81 µM | IGROV-ET TGI (IGROV-ET; IGROV-ET): 1.53E-06 | GI50 (SK-MEL-28; Homo sapiens, SK-MEL-28, 48 h, MEL-28, read-out: MEL-28 GI50): 0.0379 µM | CC50 (SK-MEL-28; Homo sapiens, SK-MEL-28, 48 h, read-out: MEL-28 LC50, MEL-28): 0.128 µM | MEL-28 TGI (SK-MEL-28; MEL-28): 6.89E-08 | DU-145 TGI (DU-145 [2]; DU-145): 7.84E-08 | GI50 (DU-145 [2]; Homo sapiens, DU-145, 48 h, DU-145, read-out: DU-145 GI50): 0.0398 µM | CC50 (DU-145 [2]; Homo sapiens, DU-145, 48 h, read-out: DU-145 LC50, DU-145): 0.124 µM | HT-29 TGI (HT-29 [3]; HT-29): 2.19E-06 | GI50 (HT-29 [3]; Homo sapiens, HT-29, 48 h, HT-29, read-out: HT-29 GI50): 0.087 µM | LC50 (concentration for 50% cell killing) (HT-29 [3]; Homo sapiens, HT-29, 48 h, read-out: HT-29 LC50, HT-29): 12.4 µM | GI50 (LNCaP; Homo sapiens, LNCaP, 48 h, read-out: LNCAP GI50, LNCAP): 0.0175 µM | CC50 (LNCaP; Homo sapiens, LNCaP, 48 h, read-out: LNCAP LC50, LNCAP): 0.0954 µM | LNCAP TGI (LNCaP; LNCAP): 4.09E-08

CCCCCCCC(=O)Oc1cc2c(cc1OC)[C@@]1(CS[C@@H]3c4c(OC(C)=O)c(C)c5c(c4[C@H](COC1=O)N1C3[C@@H]3N[C@@H](Cc4cc(C)c(OC)c(O)c43)[C@@H]1C#N)OCO5)NCC2 (some centres unmarked) [Compound 205]
IC50 (P-388): 0.000113 µM | IC50 (DU-145 [4]): 0.000113 µM | IC50 (MEL-28): 0.000113 µM | IC50 (A-549 [5]): 0.000113 µM | IC50 (HT-29 [6]): 0.000113 µM

CCCCCCCC(=O)Oc1cc2c(cc1OC)[C@@]1(CS[C@@H]3c4c(OC(C)=O)c(C)c5c(c4[C@H](COC1=O)N1C3[C@@H]3N[C@@H](Cc4cc(C)c(OC)c(OC(=O)CCCCCCC)c43)[C@@H]1C#N)OCO5)NCC2 (some centres unmarked) [Compound 206]
IC50 (P-388): 0.0496 µM | IC50 (DU-145 [4]): 0.0496 µM | IC50 (MEL-28): 0.0496 µM | IC50 (A-549 [5]): 0.0496 µM | IC50 (HT-29 [6]): 0.0496 µM

CCCCCCCCCCCCCCCC(=O)Oc1cc2c(cc1OC)[C@@]1(CS[C@@H]3c4c(OC(C)=O)c(C)c5c(c4[C@H](COC1=O)N1C3[C@@H]3N[C@@H](Cc4cc(C)c(OC)c(O)c43)[C@@H]1C#N)OCO5)NCC2 (some centres unmarked) [Compound 207]
IC50 (P-388): 0.00503 µM | IC50 (DU-145 [4]): 0.00503 µM | IC50 (MEL-28): 0.00503 µM | IC50 (A-549 [5]): 0.00503 µM | IC50 (HT-29 [6]): 0.00503 µM

CCCCCCCCCCCCCCCC(=O)Oc1cc2c(cc1OC)[C@@]1(CS[C@@H]3c4c(OC(C)=O)c(C)c5c(c4[C@H](COC1=O)N1C3[C@@H]3N[C@@H](Cc4cc(C)c(OC)c(OC(=O)CCCCCCCCCCCCCCC)c43)[C@@H]1C#N)OCO5)NCC2 (some centres unmarked) [Compound 208]
IC50 (P-388): 8.11 µM | IC50 (DU-145 [4]): 8.11 µM | IC50 (MEL-28): 8.11 µM | IC50 (A-549 [5]): 8.11 µM | IC50 (HT-29 [6]): 8.11 µM

Reference: US7759345B2, “Antitumoral derivatives of ET-743” (priority 2001, dated 2010)
